The target of one data set is T1, NOX2 (Homo sapiens, UniProt P14598).
T1 construct: HL-60 cells expressed the components of NOX2, including gp91, p22^phox, p47^phox, and p67^phox; endogenous in cells; whole cells in A1, membrane preparations in A3 and A4
T1 sequence (P14598 1-390): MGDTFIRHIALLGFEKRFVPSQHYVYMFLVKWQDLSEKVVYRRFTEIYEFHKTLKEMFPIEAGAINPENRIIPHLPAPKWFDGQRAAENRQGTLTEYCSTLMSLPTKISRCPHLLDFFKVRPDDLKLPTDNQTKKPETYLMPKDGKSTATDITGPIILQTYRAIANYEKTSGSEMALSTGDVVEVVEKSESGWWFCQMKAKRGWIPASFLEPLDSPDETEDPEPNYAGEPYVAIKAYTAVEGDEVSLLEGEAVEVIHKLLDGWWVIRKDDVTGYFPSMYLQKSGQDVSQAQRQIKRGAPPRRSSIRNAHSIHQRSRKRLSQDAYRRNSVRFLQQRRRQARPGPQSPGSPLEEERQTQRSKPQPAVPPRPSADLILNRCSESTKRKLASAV
Kind of data set: NADPH oxidase (NOX2) inhibition, DCF fluorescence in PMA-activated neutrophil-differentiated HL-60 cells. Type of data set: cell-based. As to conditions: for IC50: neutrophil-differentiated HL-60 cells, PMA 0.8 µM, DCF fluorescence, 0.05 to 50 µM. The procedure:
The differentiation of HL-60 cells to neutrophils was performed after reaching a concentration of between 2 × 10^6 and 5 × 10^6 cells/mL in the differentiation medium: RPMI 1640 medium; 10% FBS; 100 IU/mL of penicillin/streptomycin; and 1.3% DMSO for 7 days, replenishing the differentiation medium every 2 days.
The 2′,7′-dichlorofluorescein (DCF) fluorescence analysis was used to determine NADPH oxidase activity in neutrophil-differentiated HL-60 cells. The method, based on a fluorimetric assay, was adapted from Boly et al.. Briefly, 1 × 10^6 neutrophil-differentiated HL-60 cells/mL were incubated for 45 min. at 37 °C in darkness with DCF-DA (1 mg/mL). The cell suspension was then transferred to a 15 mL conical tube and centrifuged at 330× g × 10 min at 37 °C. After the supernatant was removed, the cells were re-suspended in Hanks balanced saline buffer (HBSS, Sigma-Aldrich, St. Louis, MO, USA) and transferred to dark 96-well plates with a flat glass bottom (Thermo Scientific Nunc 96 microwell® black, Optical Botton # 1.5 Cover Glass Base, Thermo Fisher Scientific). Then, 200 μL of cell suspension per well were incubated at 37 °C for 30 min with the indole heteroaryl-acrylonitriles at increasing concentrations (0.05 to 50 μM). […] Finally, PMA (0.8 μM) was added to each well for 10 min. to generate the activation of NOX2. The generation of the DCF fluorescence product was monitored in an automatic microplate reader (FLx800, BioTek Instruments, Winooski, VT, USA) at 1-min intervals at 37 °C for 1 h, using an excitation wavelength of 485 nm and an emission wavelength of 555 nm. The ability to inhibit ROS production by activated neutrophil-differentiated HL-60 cells was compared against the different controls. A control was performed with cells activated by PMA in the presence of DMSO and established as having 100% of the ROS-induced fluorescence. Inhibition control was performed in the presence of VAS2870 (20 µM) and activated by PMA. Another control (NA, not activated) was done with cells in the absence of PMA and the indole heteroaryl-acrylonitriles.
All the experiments were performed in triplicate, using three different cell preparations, and the data were reported as mean ± s.e.m. For the determination of the IC50 of the indole heteroaryl-acrylonitriles, concentration-response curves (0.05 to 50 μM) were constructed. IC50 values were given as the mean ± standard deviation for at least three independent assays. The data were analyzed using one- and two-way ANOVA. A value of p < 0.05 was considered statistically significant. Statistical analyses were performed using the program GraphPad Prism® version 6.00, San Diego, CA, USA.

Another data set in a line: MTT cytotoxicity assay. Type of data set: cell-based, human. To be noted: human; HL-60 cells, 24 h, 10 mM, MTT; read-out: cell viability. The procedure:
(§1) To verify the cytotoxicity of the acrylonitrile derivatives, the MTT reduction method was performed. Briefly, HL-60 cells were seeded in a flat-bottomed 96-well plate at a density of 10,000 cells per well. […] In a second series of experiments, cells were incubated under the same conditions but for 72 h. Etoposide was used as a positive control. Ten μL of MTT was added at a final concentration of 0.5 mg/mL, incubated at 37 °C for 4 h, and then solubilized with 10% SDS in 0.1 mM HCl and incubated overnight at 37 °C. Finally, a blue-colored compound (formazan) formation was measured at 570 nm in a multiplate reader (StatFax 4200, Awareness Technology, Inc., Palm City, FL, USA). The viability percentage was obtained as follows: Viability % = [treated cells DO × 100]/[DO cells control].
For orientation: Tetrazolium dyes change colour on reduction, which living cells bring about.

For a further data set, the system named is HL-60 cells. Kind of data set: MTT cytotoxicity assay. Type of data set: cell-based, human. To be noted: 72 h, 0.01 µM to 100 µM, MTT. As for the experimental part:
as §1

Data set [1] can be described thus: DPPH radical scavenging activity. Type of data set: physicochemical. The procedure:
The newly synthesized compounds were evaluated for 2,2-diphenyl-1-picrylhydrazyl […] free radical scavenging activity. The reduction and stabilization of DPPH by antioxidant compounds lead to discoloration, resulting in a decrease in absorbance at 517 nm, which was expressed as a percentage of the radical solution at a given concentration of discoloration. The heteroarylacrylonitrile derivatives were re-suspended in a minimum of DMSO at a final concentration of 5 mg/mL (stock solution). From these, they were diluted to concentrations of 1000, 500, and 100 μg/mL. These solutions were mixed with a methanol solution of DPPH (20 μg/mL) for 5 min. Each compound was evaluated in triplicate; absorbance at 517 nm in a UNICAM UV/visible spectrophotometer Helios-α (Thermo Electron Corporation, Waltham, MA USA) was measured by subtracting the solvent absorbance and comparing the resulting value with that of a blank sample. The percentage of discoloration was established according to the following formula: % Radical removal or discoloration = (1 − (AM − ABM)/AC) × 100, where AM is the absorbance of the sample compound, ABM is the absorbance of the sample blank, and AC is the absorbance of the control. The degree of discoloration indicates the efficacy of the compounds studied as free radical scavengers; therefore, a percentage of discoloration of 100 indicates the maximum radical scavenging capacity and a value close to 0 indicates a zero radical scavenging capacity. Quercetin was used as a reference compound in a concentration range of 1.25 to 7.5 μg/mL.
A general note: Loss of DPPH colour is used to gauge radical scavenging.

The record followed here is article PMC10376059, “New NADPH Oxidase 2 Inhibitors Display Potent Activity against Oxidative Stress by Targeting p22^phox-p47^phox Interactions” (Antioxidants, 2023).

`N#C/C(=C\c1ccc(-c2ccc(Cl)cc2)o1)C(=O)c1c[nH]c2ccccc12` [Compound C1] showed an IC50 against NOX2 of 21.5 ± 0.3 µM. Further, the viability at 24 h, 10 mM in “MTT cytotoxicity assay” worked out at 60%.

On NOX2, `Cc1nn(-c2ccccc2)c(Cl)c1/C=C(\C#N)C(=O)c1c[nH]c2ccccc12` [Compound C2] displayed an IC50 of 7.2 ± 0.3 µM.

For the molecule `N#C/C(=C\c1ccc(-c2ccccc2)cc1)C(=O)c1c[nH]c2ccccc12` [Compound C3], the “cytotoxicity (in words)” value with HL-60 cells is “non-cytotoxic”.

For the molecule `N#C/C(=C\c1ccc(N2CCOCC2)cc1)C(=O)c1c[nH]c2ccccc12` [Compound C4], in data set [1], the “antioxidant capacity, DPPH discoloration (in words)” value (“antioxidant capacity” for short) is listed as “showed antioxidant capacity only at very high concentrations”. This molecule gave an IC50 at NOX2 of 7.1 ± 0.4 µM. The viability at 24 h, 10 mM in “MTT cytotoxicity assay” was 60%.

`N#C/C(=C\c1cc(-c2ccc(F)cc2)on1)C(=O)c1c[nH]c2ccccc12` [Compound C5] came in with an IC50 at NOX2 of 6.2 ± 0.4 µM.

Consider `N#C/C(=C\c1ccc(-c2ccc([N+](=O)[O-])cc2)o1)C(=O)c1c[nH]c2ccccc12` [Compound C7], for which, on NOX2, half-maximal inhibition (IC50) was put at 68.1 ± 1.2 µM.

As to `CC(C)c1ccc2occ(/C=C(\C#N)C(=O)c3c[nH]c4ccccc34)c(=O)c2c1` [Compound C8], the “antioxidant capacity” value in data set [1] was “showed antioxidant capacity only at very high concentrations”. Also, half-maximal inhibition against NOX2 (IC50) required 17.1 ± 0.2 µM. Besides, in “MTT cytotoxicity assay”, the viability at 24 h, 10 mM was 60%.

Consider `Cc1ccc2occ(/C=C(\C#N)C(=O)c3c[nH]c4ccccc34)c(=O)c2c1` [Compound C9], for which, in data set [1], the “antioxidant capacity” value is given as “showed antioxidant capacity only at very high concentrations”. Further, the “inhibition of NOX2-derived ROS production (in words)” value at NOX2 (PMA-activated HL-60 cells, 0.05 µM to 50 µM) is “exhibited concentration-dependent inhibition of NOX2”. The IC50 at NOX2 was determined as 4.7 ± 0.3 µM. Besides, the “cytotoxicity (in words)” value with HL-60 cells was “non-cytotoxic”.

As for `N#C/C(=C\c1coc2ccccc2c1=O)C(=O)c1c[nH]c2ccccc12` [Compound C10], half-maximal inhibition against NOX2 (IC50) required 9.4 ± 0.3 µM. Besides, the viability at 24 h, 10 mM in “MTT cytotoxicity assay” was found to be 60%.

`CCc1ccc2occ(/C=C(\C#N)C(=O)c3c[nH]c4ccccc34)c(=O)c2c1` [Compound C11]: on NOX2, the midpoint of inhibition, the IC50, lay at 19.9 ± 0.2 µM.

As to `N#C/C(=C\c1c(N)oc2ccccc2c1=O)C(=O)c1c[nH]c2ccccc12` [Compound C12], on NOX2, the IC50 was found to be 21.1 ± 0.2 µM.

With `N#C/C(=C\c1cccnc1)C(=O)c1c[nH]c2ccccc12` [Compound C13], the IC50 against NOX2 is 16.3 ± 0.2 µM.

Take `CC(C)(C)OC(=O)N1CCN(c2ccc(/C=C(\C#N)C(=O)c3c[nH]c4ccccc34)cc2)CC1` [Compound C15]: on NOX2, half-maximal inhibition (IC50) required 30.4 ± 0.3 µM.

On to `N#C/C(=C\c1ccco1)C(=O)c1c[nH]c2ccccc12` [Compound C16], for which inhibition against NOX2 was half-maximal at 82.7 ± 0.2 µM (IC50).

`CC(=O)OCc1ccc(/C=C(\C#N)C(=O)c2c[nH]c3ccccc23)o1` [Compound C17] had an IC50 against NOX2 of 19.7 ± 0.2 µM.

Molecule `N#C/C(=C\c1ncc[nH]1)C(=O)c1c[nH]c2ccccc12` [Compound C18] had an IC50 against NOX2 of 51.3 ± 0.2 µM.

`Cn1ccnc1/C=C(\C#N)C(=O)c1c[nH]c2ccccc12` [Compound C19] displayed an IC50 at NOX2 of 69.3 ± 0.2 µM.

The IC50 is the midpoint of a concentration-inhibition curve. A lower IC50 goes with greater potency in that assay. Broadly, the viability is a read-out of living cells in per cent, often relative to untreated cells.
